Data reported in article PMC7545998, “A snake toxin as a theranostic agent for the type 2 vasopressin receptor” (Theranostics, 2020).

System: Sprague-Dawley rats
Assay: Pharmacodynamics: diuresis and urine osmolality after single i.p. injection
Type: in vivo, rat
Parameters: k value of diuresis over time, first phase / k value of diuresis over time, second phase: unit not given here
Details: for maximal diuresis: between first and second h post-injection; for half-life of diuresis decrease: mono-exponential
Procedure: Diuresis was maximal between the first and second h post-injection (pi), with volumes of 29.5, 45.6, 70.9, 67.6 and 79.1 mL/kg/h for the doses of 3, 10, 30, 100 and 356 nmol/kg, respectively (Figure 3C). […] For the highest dose of 356 nmol/kg, the diuresis decreased quickly during the first 4 h and then lasted for four days.
Sprague-Dawley rats are aged between 6 and 12 weeks, between 237 g and 545 g and were use up to 3 times. […] Urine was collected at various times, and centrifuged for 30 min at 20,800 g. Urine osmolality was determined with an osmometer (Knauer, Berlin, Germany). For the pharmacokinetic experiments, a catheter was implanted in the rat jugular vein five days before the experiment. Blood samples of 400 μl were taken at various times under heparin conditions. Blood was centrifuged at 2000 g for 5 min at 4 °C and plasma was frozen at -20 °C.
Sample preparation is described in Table S1. […] The mobile phase consisted of 0.1% formic acid in water (A) and 0.1% formic acid in acetonitrile (B) running in a gradient mode from B 2% to B 100% in 3 min. […] The mass spectrometer was operated in positive ESI and MRM mode. […] A model was selected based on the extravascular (i.p.) route of administration. For the i.p. route, concentration at time zero was assumed to be zero. For each rat, the first concentration below the LLOQ was set at LLOQ/2 for calculation of PK parameters. The area under the plasma concentration versus time curve (AUC) was calculated using the linear trapezoidal method (linear interpolation). When appropriate, the terminal elimination phase of the PK profile was estimated based on the best fit (r^2) using at least the last six observed concentrations. […] The same approach was used to model diuresis over time and two k values were obtained as 0.37774 and 0.02326. Lastly, the PK/PD correlation was achieved after calculating concentrations and diuresis volumes over time based on the equation y = A0*e^-kt where A0 was the computed concentration or diuresis volume at the origin of each phase.

[1] = 356 nmol/kg i.p., bi-exponential analysis
[2] = single i.p. 1 nmol/kg, 0-24 h, n=6
[3] = single i.p. 3 nmol/kg, 0-24 h, n=6
[4] = single i.p. 3 nmol/kg, 24 - 48 h, n=6
[5] = single i.p. 10 nmol/kg, 0-24 h, n=11
[6] = single i.p. 10 nmol/kg, 24 - 48 h, n=11
[7] = single i.p. 30 nmol/kg, 0-24 h, n=11
[8] = single i.p. 30 nmol/kg, 24 - 48 h, n=11
[9] = single i.p. 100 nmol/kg, 0-24 h, n=12
[10] = single i.p. 100 nmol/kg, 24 - 48 h, n=12
[11] = single i.p. 356 nmol/kg, 0-24 h, n=17
[12] = single i.p. 356 nmol/kg, 24 - 48 h, n=17
[13] = single i.p. 356 nmol/kg, 72 h (24-h period), n=12
[14] = single i.p. 356 nmol/kg, 96 h (24-h period), n=12

**Q.** For mambaquaretin [MQ1], which maximal diuresis (3 nmol/kg i.p.) is on record?
**A.** 29.5 mL/kg/h

**Q.** And the “half-life of diuresis decrease” value (3 nmol/kg i.p.)?
**A.** 3.7 h

**Q.** What about the maximal diuresis (10 nmol/kg i.p.) of the same substance?
**A.** 45.6 mL/kg/h

**Q.** What about the “half-life of diuresis decrease” value (10 nmol/kg i.p.) of the same substance?
**A.** 2.4 h

**Q.** And the maximal diuresis (30 nmol/kg i.p.)?
**A.** 70.9 mL/kg/h

**Q.** And the “half-life of diuresis decrease” value (30 nmol/kg i.p.)?
**A.** 2.4 h

**Q.** And the maximal diuresis (100 nmol/kg i.p.)?
**A.** 67.6 mL/kg/h

**Q.** And the “half-life of diuresis decrease” value (100 nmol/kg i.p.)?
**A.** 1.2 h

**Q.** What about the maximal diuresis (356 nmol/kg i.p.) of the same substance?
**A.** 79.1 mL/kg/h

**Q.** What about the “fast half-life (T1/2α) of diuresis” value [1] of the same substance?
**A.** 1.2 h

**Q.** And the “slow half-life (T1/2β) of diuresis” value [1]?
**A.** 27.3 h

**Q.** And the “k value of diuresis over time, first phase” value (356 nmol/kg i.p., modelled)?
**A.** 0.3777

**Q.** And the “k value of diuresis over time, second phase” value (356 nmol/kg i.p., modelled)?
**A.** 0.02326

**Q.** And the “diuresis and osmolality compared to control” value (single 1 nmol/kg i.p.)?
**A.** statistically unchanged

**Q.** What about the “Diuresis Average” value [2] of the same substance?
**A.** 2.34 mL/h/kg

**Q.** And the “Excretion Average” value [2]?
**A.** 2206 µosm/h/kg

**Q.** And the “Osmolarity Averag” value [2]?
**A.** 1158 mOsmol/kgH2O

**Q.** What about the “Diuresis Average” value [3] of the same substance?
**A.** 5.13 mL/h/kg

**Q.** And the “Excretion Average” value [3]?
**A.** 2710 µosm/h/kg

**Q.** And the “Osmolarity Averag” value [3]?
**A.** 503 mOsmol/kgH2O

**Q.** What about the “Diuresis Average” value [4] of the same substance?
**A.** 1.53 mL/h/kg

**Q.** And the “Excretion Average” value [4]?
**A.** 3077 µosm/h/kg

**Q.** And the “Osmolarity Averag” value [4]?
**A.** 2000 mOsmol/kgH2O

**Q.** And the “Diuresis Average” value [5]?
**A.** 7.82 mL/h/kg

**Q.** What about the “Excretion Average” value [5] of the same substance?
**A.** 2092 µosm/h/kg

**Q.** And the “Osmolarity Averag” value [5]?
**A.** 273 mOsmol/kgH2O

**Q.** What about the “Diuresis Average” value [6] of the same substance?
**A.** 1.58 mL/h/kg

**Q.** And the “Excretion Average” value [6]?
**A.** 2117 µosm/h/kg

**Q.** What about the “Osmolarity Averag” value [6] of the same substance?
**A.** 1332 mOsmol/kgH2O

**Q.** What about the “Diuresis Average” value [7] of the same substance?
**A.** 10.45 mL/h/kg

**Q.** And the “Excretion Average” value [7]?
**A.** 2280 µosm/h/kg

**Q.** And the “Osmolarity Averag” value [7]?
**A.** 214 mOsmol/kgH2O

**Q.** And the “Diuresis Average” value [8]?
**A.** 2.25 mL/h/kg

**Q.** And the “Excretion Average” value [8]?
**A.** 2064 µosm/h/kg

**Q.** And the “Osmolarity Averag” value [8]?
**A.** 937 mOsmol/kgH2O

**Q.** And the “Diuresis Average” value [9]?
**A.** 12.83 mL/h/kg

**Q.** What about the “Excretion Average” value [9] of the same substance?
**A.** 2046 µosm/h/kg

**Q.** And the “Osmolarity Averag” value [9]?
**A.** 162 mOsmol/kgH2O

**Q.** What about the “Diuresis Average” value [10] of the same substance?
**A.** 2.74 mL/h/kg

**Q.** What about the “Excretion Average” value [10] of the same substance?
**A.** 1930 µosm/h/kg

**Q.** What about the “Osmolarity Averag” value [10] of the same substance?
**A.** 703 mOsmol/kgH2O

**Q.** And the “Diuresis Average” value [11]?
**A.** 20.95 mL/h/kg

**Q.** What about the “Excretion Average” value [11] of the same substance?
**A.** 2658 µosm/h/kg

**Q.** What about the “Osmolarity Averag” value [11] of the same substance?
**A.** 136 mOsmol/kgH2O

**Q.** And the “Diuresis Average” value [12]?
**A.** 9.64 mL/h/kg

**Q.** What about the “Excretion Average” value [12] of the same substance?
**A.** 2617 µosm/h/kg

**Q.** And the “Osmolarity Averag” value [12]?
**A.** 283 mOsmol/kgH2O

**Q.** And the “Diuresis Average” value [13]?
**A.** 6.00 mL/h/kg

**Q.** What about the “Excretion Average” value [13] of the same substance?
**A.** 2617 µosm/h/kg

**Q.** What about the “Osmolarity Averag” value [13] of the same substance?
**A.** 455 mOsmol/kgH2O

**Q.** What about the “Diuresis Average” value [14] of the same substance?
**A.** 3.76 mL/h/kg

**Q.** What about the “Excretion Average” value [14] of the same substance?
**A.** 2838 µosm/h/kg

**Q.** What about the “Osmolarity Averag” value [14] of the same substance?
**A.** 754 mOsmol/kgH2O
